Results as given in ChEMBL document CHEMBL1201862, “PubChem BioAssay data set” (2004).
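Dose response: 5 concentrations. Exposure: 48 h. Format: 96-well plates. Endpoint: linear interpolation; highest concentration if not reached. GI50: concentration for 50% inhibition of growth.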 Activity calls are given as the source filed them. Rule as the data show it: active = GI50 up to about 1.1 µM and inactive = higher.

Key:
Experiment in all cases: NCI tumour cell line growth inhibition, 48 h
[1] = test system: 786-0
[2] = test system: A498
[3] = test system: A549
[4] = test system: ACHN
[5] = test system: CAKI-1
[6] = test system: CCRF-CEM
[7] = test system: COLO 205
[8] = test system: DLD-1
[9] = test system: DMS-273
[10] = test system: EKVX
[11] = test system: HCC 2998
[12] = test system: HCT-116
[13] = test system: HCT-15
[14] = test system: HL-60
[15] = test system: HOP-18
[16] = test system: HOP-62
[17] = test system: HOP-92
[18] = test system: IGROV-1
[19] = test system: K562
[20] = test system: KM-20L2
[21] = test system: KM12
[22] = test system: LOX IMVI
[23] = test system: LXFL 529
[24] = test system: M14
[25] = test system: M19-MEL
[26] = test system: MOLT-4
[27] = test system: Malme-3M
[28] = test system: NCI-H23
[29] = test system: NCI-H460
[30] = test system: OVCAR-3
[31] = test system: OVCAR-4
[32] = test system: OVCAR-5
[33] = test system: OVCAR-8
[34] = test system: RPMI-8226
[35] = test system: RXF 631
[36] = test system: SF-268
[37] = test system: SF-295
[38] = test system: SF-539
[39] = test system: SK-MEL-28
[40] = test system: SK-MEL-2
[41] = test system: SK-MEL-5
[42] = test system: SK-OV-3
[43] = test system: SN12C
[44] = test system: SNB-19
[45] = test system: SNB-78
[46] = test system: SW-620
[47] = test system: TK-10
[48] = test system: U-251
[49] = test system: UACC-257
[50] = test system: UACC-62
[51] = test system: XF498
[52] = test system: DMS-114
[53] = test system: HT-29
[54] = test system: NCI-H226
[55] = test system: NCI-H522
[56] = test system: UO-31

Measured: GI50

O=C(NCCCOC(=O)CCCCCCCCC(=O)OCCCNC(=O)NC(=O)c1c[nH]c(=O)[nH]c1=O)NC(=O)c1c[nH]c(=O)[nH]c1=O
> 100 µM: [13]
inactive: [1] > 100 µM | [2] > 100 µM | [3] > 100 µM | [4] > 100 µM | [5] > 100 µM | [6] > 100 µM | [7] > 100 µM | [8] > 100 µM | [9] > 100 µM | [10] > 100 µM | [11] > 100 µM | [12] > 100 µM | [14] > 100 µM | [15] 1.49 µM | [16] > 100 µM | [17] > 100 µM | [18] > 100 µM | [19] > 100 µM | [20] > 100 µM | [21] > 100 µM | [22] > 100 µM | [23] > 100 µM | [24] > 100 µM | [25] > 100 µM | [26] > 100 µM | [27] > 100 µM | [28] 45.1 µM | [29] > 100 µM | [30] > 100 µM | [31] > 100 µM | [32] > 100 µM | [33] > 100 µM | [34] > 100 µM | [35] > 100 µM | [36] > 100 µM | [37] > 100 µM | [38] > 100 µM | [39] > 100 µM | [40] > 100 µM | [41] > 100 µM | [42] > 100 µM | [43] > 100 µM | [44] > 100 µM | [45] > 100 µM | [46] > 100 µM | [47] > 100 µM | [48] > 100 µM | [49] > 100 µM | [50] > 100 µM | [51] > 100 µM

CC(=O)O/C=C(/C=C/OC(C)=O)C(C/C=C(\C)C#CC=C(C)C)OC(C)=O (stereo unspecified)
17.7 µM: [13]
inactive: [1] 36.6 µM | [2] > 100 µM | [3] > 100 µM | [4] 61.1 µM | [5] > 100 µM | [6] 26.1 µM | [7] 27.9 µM | [8] 45.8 µM | [52] 19 µM | [9] 50.8 µM | [10] 93.5 µM | [11] > 100 µM | [12] 18.3 µM | [14] 8.51 µM | [15] 33.3 µM | [16] > 100 µM | [17] 36.6 µM | [53] 30.7 µM | [18] 30.4 µM | [19] 21 µM | [20] 53.1 µM | [21] 23.1 µM | [22] 26.1 µM | [23] 19.3 µM | [24] 34.1 µM | [25] 20.8 µM | [26] 21.1 µM | [27] 72.6 µM | [54] > 100 µM | [28] 38.6 µM | [29] > 100 µM | [55] 25.2 µM | [30] 24.2 µM | [31] 38.4 µM | [32] > 100 µM | [33] 37 µM | [34] 25.8 µM | [35] > 100 µM | [36] > 100 µM | [37] 61.5 µM | [38] 22.8 µM | [40] > 100 µM | [41] 72.6 µM | [42] > 100 µM | [43] 36.6 µM | [44] > 100 µM | [45] 29.9 µM | [46] 42.3 µM | [47] > 100 µM | [48] 38.5 µM | [49] 33.7 µM | [50] 27.4 µM | [56] 58.2 µM | [51] 37.2 µM
